Measured values as given in patent US7074807B2, “Compositions and methods for inducing cell death” (Georgetown University, priority 1998, dated 2006).

Columns and labels:
[1] = Kocherginsky et al., 1995; cited from earlier work
SAPK = SAPK tyrosine phosphorylation (anti-SAPK IP, anti-PY immunoblot); type: cell-based, human; details: 10 mM, time course, vs tempol or untreated controls
Experimental: FIGS. 5A, 5B, 5C. Tempo stimulates tyrosine phosphorylation and activity of SAPK. […] 5A. WCLs (1 mg) were immunoprecipitated with agarose-conjugated anti-SAPK antibody, followed by immunoblotting with anti-PY MAb. 5B. In other independent experiments, anti-SAPK immunoprecipitates were first probed with anti-PY MAb (top), and the blot was then reprobed with anti-SAPK antibody (bottom). 5C. […] WCLs were immunoprecipitated with anti-JNK1 antibody, and the JNK1 activity in immunoprecipitates was measured using GST-cJun (˜41 kDa) as a substrate. UT, untreated cells grown overnight in serum-free medium; CONT/Control, cells grown in serum-free medium overnight, and treated with 1% ethanol for 2 h.
Immunoprecipitation and Immunoblotting—Whole cell lysate (1 mg) was immunoprecipitated with the appropriate agarose-conjugated antibody (1 ug/ml of lysis buffer) overnight at 4° C. with constant agitation. For SAPK immunoprecipitation, WCL (1 mg) was immunoprecipitated with anti-SAPK antibody (5 ug/ml) overnight followed by addition of protein A-Agarose (50 ul of 250 ul/ml stock) and incubation for 2 h at 4° C. Immune-complex beads were collected by microcentrifugation at 15,000×g for 5 min followed by three washes with lysis buffer. […] The bands of interest were quantified by ImageQuant software version 3.3 (Molecular Dynamics Personal Densitometer, Sunnyvale, Calif.). […]

[2] = Apoptosis assay (annexin V-FITC/propidium iodide flow cytometry); details: human
Experimental: (§1) FIGS. (7A1–7A3), (7B1–7B2), (7C1–7C3), (7D1–7D2), (7E1–7E3), (7F1–7F2). […] Cells were grown in serum-free medium overnight in T-25 flasks and treated with tempol (10 mM) or tempo (10 mM) for various times, trypsinized, and then resuspended in 200 ul 1× binding buffer as described in experimental procedures. The cell suspension was double-stained with annexin V-FITC and propidium iodide and analyzed by flow cytometry. Background signal was determined by comparison with double-stained, single-stained, or unstained control cells. (7A1–7A3), (7C1–7C3), and (7E1–7E3) are cytograms showing a relative distribution of viable (V), apoptotic (A), and necrotic (N) cells at 2 h following tempol or tempo treatment of MDA-MB 231 cells (A), PCI-04A cells (C), and PC-3 cells (E). (7B1–7B3), (7D1–7D2), and (7F1–7F2) are time course analyses of MDA-MB 231 cells (B), PCT-04A cells (D), and PC-3 cells (F). 100,000 cells were analyzed at each time point in triplicate (B) or quadruplicate (D and F). Solid bars, 1% ethanol, striped bars, 10 mM tempol, empty bars, 10 mM tempo. […] Data shown are representative from three to four independent experiments. (7B1–7B2), Time course analysis of MDA-MB 231 cells undergoing apoptosis (annexin V-FITC staining) (7B1), or necrosis (propidium iodide staining) (7B2). Values shown are mean±s.d. of triplicate determinations per time point in each treatment category, and representative of three to four independent experiments. […] (7D1–7D2), Time course analysis of PCI-04A cells undergoing apoptosis (annexin V-FITC staining) (7D1), or necrosis (propidium iodide staining) (7D2). Values shown are mean±s.d. of quadruplicate determinations per time point in each treatment category. […] (7F1–7F2), Time course analysis of PC-3 cells undergoing apoptosis (annexin V-FITC staining) (7F1), or necrosis (propidium iodide staining) (7F2). Values shown are mean±s.d. of quadruplicate determinations per time point in each treatment category. Control/C, cells treated with 1% ethanol for 2 h.
(§2) Apoptosis Assay—ApoAlert Annexin V apoptosis detection system (Clontech Lab Inc., Palo Alto, Calif.) was used to measure the relative distribution of apoptotic and necrotic cells. Briefly, cells were seeded at a density of 1×10^6 cells per 25 cm^2 tissue culture flask in medium containing 10% FBS overnight, followed by washing twice in serum-free medium. Cells were maintained overnight in serum-free medium and exposed to tempol (10 mM) or tempo (10 mM) for various times. This was followed by rinsing twice with serum-free medium prior to trypsinization, dilution in two volumes of serum-free medium, and centrifugation at 10,000× g. The cell pellet was washed once with PBS and resuspended in 200 ul of 1× binding buffer. The cell suspension was double-labeled with fluorescein isothiocyanate (FITC)-labeled annexin V (10 ul) and propidium iodide (PI) (10 ul) according to the manufacturer's instructions. Unlabeled cells or untreated cells labeled with either FITC-annexin V or PI, or double-labeled served as internal controls for the background signal. The intensity of the dye uptake by cells was detected using FACStar plus Flow Cytometer (Becton Dickerson, Lincoln Park, N.J.), and data were analyzed using Reproman True Facts software (Seattle, Wash.). Viable cells were FITC−/PI−, apoptotic cells were FITC+/PI−, and necrotic cells were FITC+/PI+.

[3] = as above; details: human; remark: listed apart in the source
Experimental: as §1, §2

[4] = previous in vitro studies, cited from earlier work
[5] = Apoptosis assay (annexin V-FITC/propidium iodide flow cytometry), serum-free; details: human
Experimental: as §1
Apoptosis Assay—ApoAlert Annexin V apoptosis detection system (Clontech Lab Inc., Palo Alto, Calif.) was used to measure the relative distribution of apoptotic and necrotic cells. Briefly, cells were seeded at a density of 1×10^6 cells per 25 cm^2 tissue culture flask in medium containing 10% FBS overnight, followed by washing twice in serum-free medium. Cells were maintained overnight in serum-free medium and exposed to tempol (10 mM) or tempo (10 mM) for various times. […] The intensity of the dye uptake by cells was detected using FACStar plus Flow Cytometer (Becton Dickerson, Lincoln Park, N.J.), and data were analyzed using Reproman True Facts software (Seattle, Wash.). […]

SMILES: CC1(C)CCCC(C)(C)N1[O] [tempo, 2,2,6,6-tetramethylpiperidine-N-oxyl]
- lipophilicity relative to tempol [1]: approximately 200 times
- level of phosphorylated SAPK (SAPKP) (SAPK): significant increase

SMILES: CC1(C)CC(O)CC(C)(C)N1[O] [tempol, 4-hydroxy-tempo, reference compound]
- viability at 2 h, 10 mM [2]: 92.3%
- viability at 2 h, 10 mM [3]: 89.8%
- protection factor ([4]; 100 mM, radioprotection): 2.2
- concentration required to provide radioprotection [4]: 5 to 10 mM
- viability at 2 h, 10 mM [5]: 95.8%
